Experimental data taken from ChEMBL document CHEMBL1201862, “PubChem BioAssay data set” (2004).
Calls of active or inactive are those of the source. Unless noted, no cut-off for these calls is given here.

Key:
[1] = molecular target: T1, Metabotropic glutamate receptor 7 (Homo sapiens, UniProt Q14831); experiment: glutamate curve shift by mGlu7 potentiators, cell-based, rat, GIRK per title (AID 743386); type: functional
[2] = molecular target: Metabotropic glutamate receptor 3 (Homo sapiens, UniProt Q14832); experiment: Selectivity Studies of mglur8 probe at mglur3.; type: functional
[3] = molecular target: Metabotropic glutamate receptor 6 (Homo sapiens, UniProt O15303); experiment: off-target activity check on mGlu6 receptor – cell-based, GIRK thallium flux, agonist curve fold shift, selectivity assay for mGlu8/mGlu7 PAM project, profiling panel (AID 743421); type: functional
Chain of Metabotropic glutamate receptor 6 (O15303 whole entry): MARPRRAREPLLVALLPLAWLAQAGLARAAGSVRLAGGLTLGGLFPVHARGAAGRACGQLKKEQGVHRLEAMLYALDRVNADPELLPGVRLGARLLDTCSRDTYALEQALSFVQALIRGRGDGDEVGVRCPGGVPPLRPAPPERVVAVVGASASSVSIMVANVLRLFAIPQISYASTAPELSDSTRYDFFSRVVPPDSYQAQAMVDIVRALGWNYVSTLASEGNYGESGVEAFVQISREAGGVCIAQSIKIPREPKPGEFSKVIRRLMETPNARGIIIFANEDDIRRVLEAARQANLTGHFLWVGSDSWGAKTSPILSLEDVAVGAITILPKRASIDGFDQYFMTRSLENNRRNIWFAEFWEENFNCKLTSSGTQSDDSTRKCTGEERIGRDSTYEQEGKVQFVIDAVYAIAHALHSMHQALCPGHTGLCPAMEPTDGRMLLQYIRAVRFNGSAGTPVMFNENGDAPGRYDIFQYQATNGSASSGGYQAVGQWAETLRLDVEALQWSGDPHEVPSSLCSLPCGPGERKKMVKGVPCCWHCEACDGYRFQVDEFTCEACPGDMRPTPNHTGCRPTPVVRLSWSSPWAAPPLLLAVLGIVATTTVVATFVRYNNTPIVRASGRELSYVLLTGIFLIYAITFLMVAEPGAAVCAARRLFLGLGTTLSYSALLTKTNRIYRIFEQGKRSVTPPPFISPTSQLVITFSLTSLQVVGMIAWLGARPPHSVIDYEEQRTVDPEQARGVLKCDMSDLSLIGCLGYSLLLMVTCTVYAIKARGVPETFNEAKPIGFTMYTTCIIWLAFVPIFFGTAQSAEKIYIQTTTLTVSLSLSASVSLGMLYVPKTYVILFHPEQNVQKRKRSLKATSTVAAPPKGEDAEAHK

[4] = molecular target: Metabotropic glutamate receptor 5 (Homo sapiens, UniProt P41594); experiment: off-target activity check on mGlu5 receptor – cell-based, calcium fluorescence, glutamate curve fold shift, selectivity assay for mGlu8/mGlu7 PAM project, profiling panel (AID 743419); type: functional
[5] = molecular target: T2, Metabotropic glutamate receptor 4 (Homo sapiens, UniProt Q14833); experiment: Fold shift mGlu4, mGlu7, mGlu8 using calcium mobilization.; type: functional
T2 sequence (Q14833 whole entry): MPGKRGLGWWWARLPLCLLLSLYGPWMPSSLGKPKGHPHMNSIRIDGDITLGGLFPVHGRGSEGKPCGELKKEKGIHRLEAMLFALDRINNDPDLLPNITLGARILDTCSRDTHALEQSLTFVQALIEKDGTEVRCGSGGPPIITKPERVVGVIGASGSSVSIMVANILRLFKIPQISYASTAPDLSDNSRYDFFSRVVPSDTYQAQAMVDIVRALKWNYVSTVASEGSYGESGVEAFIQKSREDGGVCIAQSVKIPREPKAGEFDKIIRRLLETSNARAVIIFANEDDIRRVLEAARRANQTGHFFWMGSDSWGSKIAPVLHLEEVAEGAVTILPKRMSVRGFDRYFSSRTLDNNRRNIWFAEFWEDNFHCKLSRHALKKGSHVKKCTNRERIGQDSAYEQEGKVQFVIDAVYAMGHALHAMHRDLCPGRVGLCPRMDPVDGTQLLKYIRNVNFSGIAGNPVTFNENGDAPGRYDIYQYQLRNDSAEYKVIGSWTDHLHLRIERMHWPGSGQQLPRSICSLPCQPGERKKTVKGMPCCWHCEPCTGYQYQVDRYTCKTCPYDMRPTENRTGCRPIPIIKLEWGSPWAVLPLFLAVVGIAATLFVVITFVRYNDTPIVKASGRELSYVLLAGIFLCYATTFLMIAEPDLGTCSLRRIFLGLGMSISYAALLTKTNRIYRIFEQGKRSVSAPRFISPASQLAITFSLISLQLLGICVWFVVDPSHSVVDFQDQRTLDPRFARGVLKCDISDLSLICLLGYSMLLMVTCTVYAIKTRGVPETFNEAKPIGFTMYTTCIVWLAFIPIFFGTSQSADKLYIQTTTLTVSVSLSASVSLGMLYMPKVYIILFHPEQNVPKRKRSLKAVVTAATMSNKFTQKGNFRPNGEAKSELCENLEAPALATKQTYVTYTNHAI

[6] = molecular target: Metabotropic glutamate receptor 8 (Homo sapiens, UniProt O00222); experiment: Fold shift mGlu8 using GIRK assay.; type: functional
Chain of Metabotropic glutamate receptor 8 (O00222 whole entry): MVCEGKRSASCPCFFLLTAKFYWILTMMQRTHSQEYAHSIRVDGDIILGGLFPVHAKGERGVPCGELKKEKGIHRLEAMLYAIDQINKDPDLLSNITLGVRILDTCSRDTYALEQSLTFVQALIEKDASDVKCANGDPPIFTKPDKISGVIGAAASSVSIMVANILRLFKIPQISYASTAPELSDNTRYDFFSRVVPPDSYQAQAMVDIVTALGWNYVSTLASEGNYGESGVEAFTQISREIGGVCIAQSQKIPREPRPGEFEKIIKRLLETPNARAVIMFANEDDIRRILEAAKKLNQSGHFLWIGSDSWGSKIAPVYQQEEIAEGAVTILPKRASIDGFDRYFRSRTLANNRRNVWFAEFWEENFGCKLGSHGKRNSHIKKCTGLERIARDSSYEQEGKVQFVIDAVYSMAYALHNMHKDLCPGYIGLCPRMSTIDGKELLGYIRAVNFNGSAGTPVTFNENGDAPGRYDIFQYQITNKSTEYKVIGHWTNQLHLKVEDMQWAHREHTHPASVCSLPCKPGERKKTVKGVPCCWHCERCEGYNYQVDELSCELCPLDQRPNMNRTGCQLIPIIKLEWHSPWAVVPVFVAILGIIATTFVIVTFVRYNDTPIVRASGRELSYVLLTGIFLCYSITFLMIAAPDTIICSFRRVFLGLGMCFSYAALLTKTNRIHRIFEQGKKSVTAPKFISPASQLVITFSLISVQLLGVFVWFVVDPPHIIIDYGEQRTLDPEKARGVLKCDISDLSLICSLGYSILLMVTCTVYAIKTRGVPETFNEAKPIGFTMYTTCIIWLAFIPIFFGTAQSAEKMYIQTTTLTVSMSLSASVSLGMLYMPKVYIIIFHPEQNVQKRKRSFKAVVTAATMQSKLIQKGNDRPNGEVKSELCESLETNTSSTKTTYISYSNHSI

[7] = molecular target: T1, Metabotropic glutamate receptor 7; experiment: Fold shift mGlu7 using calcium mobilization.; type: functional
[8] = molecular target: Metabotropic glutamate receptor 2 (Homo sapiens, UniProt Q14416); experiment: off-target activity check on mGlu2 receptor – cell-based, GIRK thallium flux, agonist curve fold shift, selectivity assay for mGlu8/mGlu7 PAM project, profiling panel (AID 743433); type: functional
[9] = molecular target: T2, Metabotropic glutamate receptor 4; experiment: agonist response potentiation at mGlu4 receptor – cell-based, GIRK thallium flux, mechanism study for group III mGlu PAM project, late-stage follow-up (AID 743466); type: functional
[10] = molecular target: Diphosphomevalonate decarboxylase (Streptococcus pneumoniae serotype 2 (strain D39 / NCTC 7466), UniProt Q9FD53); experiment: diphosphomevalonate decarboxylase inhibitor confirmation – biochemical, cuvette format, coupled NADH fluorescence (AID 1028); type: functional
Chain of Diphosphomevalonate decarboxylase (Q9FD53 whole entry): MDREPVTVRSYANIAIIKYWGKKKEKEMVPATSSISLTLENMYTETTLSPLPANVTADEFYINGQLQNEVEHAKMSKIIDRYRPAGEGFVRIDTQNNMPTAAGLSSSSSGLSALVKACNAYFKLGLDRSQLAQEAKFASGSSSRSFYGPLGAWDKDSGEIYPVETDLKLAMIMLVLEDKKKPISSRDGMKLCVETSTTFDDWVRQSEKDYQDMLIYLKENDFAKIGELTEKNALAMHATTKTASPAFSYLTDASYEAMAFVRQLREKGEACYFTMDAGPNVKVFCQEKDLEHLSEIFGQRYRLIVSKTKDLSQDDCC

[11] = molecular target: Mitogen-activated protein kinase 10 (Homo sapiens, UniProt P53779); experiment: Dose response biochemical screening assay for inhibitors of c-Jun N-Terminal Kinase 3 (JNK3). [Related pubchem assays: 746 ]
Chain of Mitogen-activated protein kinase 10 (P53779 whole entry): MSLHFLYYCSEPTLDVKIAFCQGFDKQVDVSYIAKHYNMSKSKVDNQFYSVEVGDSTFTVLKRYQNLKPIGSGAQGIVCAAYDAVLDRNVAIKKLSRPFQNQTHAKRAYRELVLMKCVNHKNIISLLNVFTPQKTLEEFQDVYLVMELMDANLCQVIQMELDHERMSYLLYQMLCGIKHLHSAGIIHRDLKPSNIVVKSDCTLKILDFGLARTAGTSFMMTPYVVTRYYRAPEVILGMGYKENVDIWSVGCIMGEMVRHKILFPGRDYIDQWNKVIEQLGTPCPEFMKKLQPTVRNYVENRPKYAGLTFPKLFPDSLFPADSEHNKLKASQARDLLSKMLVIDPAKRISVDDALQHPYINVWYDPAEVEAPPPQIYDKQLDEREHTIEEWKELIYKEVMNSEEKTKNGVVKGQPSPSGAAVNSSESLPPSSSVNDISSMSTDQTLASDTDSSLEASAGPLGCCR

[12] = viability loss in Vero cells – cytotoxicity control for Vif-APOBEC3G degradation inhibitor project, dose response (AID 1117358); type: functional; conditions: Vero
Protein Tat = Protein Tat (Human immunodeficiency virus type 1 group M subtype B (isolate HXB2)(HIV-1), UniProt P04608); type: functional;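 note: tat binding to TAR RNA read out by fluorescence polarization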
Chain of Protein Tat (P04608 whole entry, the tested form may be a part): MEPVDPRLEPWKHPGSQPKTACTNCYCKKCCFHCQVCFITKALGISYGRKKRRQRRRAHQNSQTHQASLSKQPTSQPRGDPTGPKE

[13] = molecular target: E3 ubiquitin-protein ligase UHRF1 (Homo sapiens, UniProt Q96T88); experiment: Counterscreen for inhibitors of 5-meCpG-binding domain protein 2 (MBD2): TRFRET-based biochemical high throughput dose response assay to identify inhibitors of binding of ubiquitin-like with PHD and ring finger domains 1 (UHRF1) to methylated oligonucleotide.
[14] = molecular target: G-protein coupled receptor 183 (Homo sapiens, UniProt P32249); experiment: SAR confirmation of small molecule antagonists of the EBI2 receptor via a luminescent beta-arrestin assa.; type: functional
Chain of G-protein coupled receptor 183 (P32249 whole entry): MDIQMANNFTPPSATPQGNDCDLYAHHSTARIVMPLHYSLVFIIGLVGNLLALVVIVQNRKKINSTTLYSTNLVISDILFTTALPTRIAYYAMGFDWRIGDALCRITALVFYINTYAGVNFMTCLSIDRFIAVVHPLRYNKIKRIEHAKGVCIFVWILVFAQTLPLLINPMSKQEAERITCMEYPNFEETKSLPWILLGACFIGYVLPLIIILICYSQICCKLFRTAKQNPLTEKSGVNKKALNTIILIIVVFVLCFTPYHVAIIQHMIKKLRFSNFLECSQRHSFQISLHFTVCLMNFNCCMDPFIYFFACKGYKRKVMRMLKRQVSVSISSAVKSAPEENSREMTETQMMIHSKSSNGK

cells = conditions: HEK293
[15] = toxicity to A549 lung cells – cell-based, plate reader, dry powder, set 6, cytotoxicity control, dose response (AID 743312); type: functional

T1 sequence (Q14831 whole entry): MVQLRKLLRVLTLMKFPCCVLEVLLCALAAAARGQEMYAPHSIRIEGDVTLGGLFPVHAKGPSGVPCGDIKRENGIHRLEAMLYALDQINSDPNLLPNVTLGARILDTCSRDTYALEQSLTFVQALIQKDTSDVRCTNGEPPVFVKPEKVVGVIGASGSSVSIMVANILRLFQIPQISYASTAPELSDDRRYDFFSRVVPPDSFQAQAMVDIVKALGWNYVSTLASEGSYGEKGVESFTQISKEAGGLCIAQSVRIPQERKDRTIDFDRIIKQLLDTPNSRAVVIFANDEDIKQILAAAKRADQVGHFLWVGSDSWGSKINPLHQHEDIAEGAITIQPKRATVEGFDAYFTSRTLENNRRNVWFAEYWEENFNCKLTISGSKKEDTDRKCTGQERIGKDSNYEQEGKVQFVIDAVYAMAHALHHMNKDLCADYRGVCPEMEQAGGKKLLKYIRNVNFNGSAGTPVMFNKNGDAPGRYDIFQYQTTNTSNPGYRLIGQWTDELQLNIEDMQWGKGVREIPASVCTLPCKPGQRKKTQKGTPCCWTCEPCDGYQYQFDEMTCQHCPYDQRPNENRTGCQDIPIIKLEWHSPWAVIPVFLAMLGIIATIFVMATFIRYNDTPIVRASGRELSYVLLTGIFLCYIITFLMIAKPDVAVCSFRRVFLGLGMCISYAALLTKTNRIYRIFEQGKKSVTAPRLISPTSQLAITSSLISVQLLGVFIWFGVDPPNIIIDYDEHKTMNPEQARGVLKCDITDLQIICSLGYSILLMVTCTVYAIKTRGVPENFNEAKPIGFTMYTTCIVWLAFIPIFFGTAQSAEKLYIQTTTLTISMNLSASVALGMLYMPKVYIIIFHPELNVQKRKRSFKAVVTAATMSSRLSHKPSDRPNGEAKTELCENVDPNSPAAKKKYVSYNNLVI

## COC(=O)c1ccc(-n2c(C)cc(C(=O)CSc3ccc(NC(C)=O)cc3)c2C)cc1
[1]
  EC50: 28.4 µM (active)
[2]
  EC50: 0.18 µM (inactive)
[3]
  EC50: 0.39 µM (active)
[4]
  EC50: 0.35 µM (inactive)
[5]
  EC50: 1.78 µM (active)
[6]
  EC50: 0.73 µM
[7]
  EC50: 16.2 µM (active)
[8]
  EC50: 0.37 µM (inactive)
[9]
  EC50: 4.1 µM (inactive)

## CCCNC(=O)c1ccccc1-n1sc2ccccc2c1=O
[10]
  IC50: 31.3 µM (active)

## COc1ccc(C(=O)NCc2nc3ccccc3[nH]2)cc1OC
[11]
  IC50: 23.2 µM (not active)

## CN1CCc2nc3ccc(Cl)cc3c(-c3ccccc3Cl)c2C1
[12]
  CC50: > 40 µM (active)
Protein Tat
  IC50: > 100 µM (active)

## CC(=O)Nc1sc2c(c1-c1nc3ccccc3s1)CCN(C)C2
[13]
  IC50: 25.7 µM (inactive)

## O=C(/C=C/c1ccc(Br)cc1)N1CCN(Cc2cc(F)cc(F)c2)CC1
[14]
  IC50: 0.00221 µM (active)

## Cc1cccc(OCCn2c(=S)[nH]c3ccc(C(F)(F)F)cc32)c1
cells
  AC50: 35.9 µM (active)
[15]
  AC50: 15.6 µM (active)
